US20240343704A1, “HALO-SUBSTITUTED AMINO PYRIDINE COMPOUNDS AS INHIBITORS OF THE HAEMATOPOIETIC PROGENITOR KINASE 1 (HPK1)” (priority 2021, published 2024)

Assays:
Lck (h) = Lck (h) (Homo sapiens, UniProt P06239); assay: Lck Human  Kinase Enzymatic Radiometric Assay; type: biochemical; conditions: read-out: Lck IC50 nM Range*
Method in brief: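 Substrate 33P-incorporation measured by scintillation counting after spotting on P30 filtermat and phosphoric acid washes. Human Lck reacted 40 min at RT in 50 mM Tris pH 7.5 with 10 mM MgAcetate, [gamma-33P]-ATP, 250 uM Cdc2 peptide, 0.1 mM EGTA and 0.1 mM Na3VO4.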

[1] = target: T1, Recombinant (1-346) HPK1 (h) (Homo sapiens, UniProt Q92918); assay: HPK1 Human STE Kinase Enzymatic Radiometric Assay; type: biochemical; conditions: read-out: HPK1 IC50 nM Range*
T1 construct: Recombinant (1-346) HPK1 (h) is incubated with 8 mM MOPS pH 7.0
T1 sequence (Q92918 1-346): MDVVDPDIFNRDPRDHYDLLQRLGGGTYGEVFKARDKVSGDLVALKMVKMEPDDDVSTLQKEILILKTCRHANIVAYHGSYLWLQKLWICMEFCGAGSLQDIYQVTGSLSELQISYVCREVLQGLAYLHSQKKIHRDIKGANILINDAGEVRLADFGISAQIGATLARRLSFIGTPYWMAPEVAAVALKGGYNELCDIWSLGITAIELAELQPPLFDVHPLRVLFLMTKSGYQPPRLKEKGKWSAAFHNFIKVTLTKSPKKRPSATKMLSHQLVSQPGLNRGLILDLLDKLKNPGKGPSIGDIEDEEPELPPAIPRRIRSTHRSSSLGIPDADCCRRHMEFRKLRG
Description: A stock solution of 10 mM of test compound is prepared in DMSO. The compound plate was prepared by 3-fold and 9-point serial dilutions. […] The reaction is initiated by The addition of the Mg/ATP mix. After incubation for 40 minutes at RT, the reaction is stopped by the addition of phosphoric acid to a concentration of 0.5%.

Lck (h), sequence (P06239 whole entry): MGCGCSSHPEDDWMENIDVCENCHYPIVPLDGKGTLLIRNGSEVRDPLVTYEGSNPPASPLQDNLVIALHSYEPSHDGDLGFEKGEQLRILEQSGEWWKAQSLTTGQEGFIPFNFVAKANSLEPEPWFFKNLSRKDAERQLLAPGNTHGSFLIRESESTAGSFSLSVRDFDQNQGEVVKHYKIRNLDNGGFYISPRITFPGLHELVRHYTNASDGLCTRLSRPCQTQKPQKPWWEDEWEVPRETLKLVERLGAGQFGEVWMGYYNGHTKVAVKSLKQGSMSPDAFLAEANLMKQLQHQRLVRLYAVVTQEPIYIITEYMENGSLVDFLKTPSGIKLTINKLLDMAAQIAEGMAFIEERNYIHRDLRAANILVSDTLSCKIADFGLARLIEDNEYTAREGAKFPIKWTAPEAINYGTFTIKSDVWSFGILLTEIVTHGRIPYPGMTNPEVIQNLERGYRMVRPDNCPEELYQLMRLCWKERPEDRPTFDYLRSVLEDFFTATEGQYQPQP

| IC50 (Lck (h)) [nM] | IC50 [1] [nM] | Structure (SMILES) |
| --- | --- | --- |
| > 1000 | 0.1 to 10 | COCCN1CC=C(c2ccc(-c3cc(-c4ccc5c(c4)CCNC5=O)c(N)nc3F)cc2)C1 [I-124, 6-(2-amino-6-fluoro-5-(4-(1-(2-methoxyethyl)-2,5-dihydro-1H-pyrrol-3-yl)phenyl)pyridin-3-yl)-3,4-dihydroisoquinolin-1(2H)-one] |
| > 1000 | 0.1 to 10 | CC(C)(O)CN1C[C@H]2C[C@@]2(c2ccc(-c3cc(-c4ccc5c(c4)CCNC5=O)c(N)nc3F)cc2)C1 [I-125, 6-(2-amino-6-fluoro-5-(4-((1R,5S)-3-(2-hydroxy-2-methylpropyl)-3-azabicyclo[3.1.0]hexan-1-yl)phenyl)pyridin-3-yl)-3,4-dihydroisoquinolin-1(2H)-one] |
| > 1000 | 0.1 to 10 | CC(C)(O)CN1C[C@@H]2C[C@]2(c2ccc(-c3cc(-c4ccc5c(c4)CCNC5=O)c(N)nc3F)cc2)C1 [I-126, 6-(2-amino-6-fluoro-5-(4-((1S,5R)-3-(2-hydroxy-2-methylpropyl)-3-azabicyclo[3.1.0]hexan-1-yl)phenyl)pyridin-3-yl)-3,4-dihydroisoquinolin-1(2H)-one] |
| > 1000 | 11 to 100 | Nc1nc(F)c(-c2ccc(S(=O)(=O)C3CCNCC3)cc2)cc1-c1ccc2c(c1)CCNC2=O [I-128, 6-(2-amino-6-fluoro-5-(4-(piperidin-4-ylsulfonyl)phenyl)pyridin-3-yl)-3,4-dihydroisoquinolin-1(2H)-one] |
| 101 to 1000 | 0.1 to 10 | CN1CCC(n2cc(-c3cc(-c4cc5c(cc4F)C(=O)NCC5)c(N)nc3F)cn2)CC1 [I-129, 6-(2-amino-6-fluoro-5-(1-(1-methylpiperidin-4-yl)-1H-pyrazol-4-yl)pyridin-3-yl)-7-fluoro-3,4-dihydroisoquinolin-1(2H)-one] |
| > 1000 | 11 to 100 | CC(C)[C@H]1CN(c2ccc(-c3cc(-c4ccc5c(c4)CCNC5=O)c(N)nc3F)cc2C(F)(F)F)CCO1 [I-130, (S)-6-(2-amino-6-fluoro-5-(4-(2-isopropylmorpholino)-3-(trifluoromethyl)phenyl)pyridin-3-yl)-3,4-dihydroisoquinolin-1(2H)-one] |
| > 1000 | 0.1 to 10 | CCN1CCOCC1c1ccc(-c2cc(-c3ccc4c(c3)CCNC4=O)c(N)nc2F)cc1 (stereo not drawn) [I-131, 6-(2-amino-5-(4-(4-ethylmorpholin-3-yl)phenyl)-6-fluoropyridin-3-yl)-3,4-dihydroisoquinolin-1(2H)-one] |
| > 1000 | 0.1 to 10 | CC(C)N1CCOCC1c1ccc(-c2cc(-c3ccc4c(c3)CCNC4=O)c(N)nc2F)cc1 (stereo not drawn) [I-132, 6-(2-amino-6-fluoro-5-(4-(4-isopropylmorpholin-3-yl)phenyl)pyridin-3-yl)-3,4-dihydroisoquinolin-1(2H)-one] |
| > 1000 | 0.1 to 10 | COCCN1CCOCC1c1ccc(-c2cc(-c3ccc4c(c3)CCNC4=O)c(N)nc2F)cc1 (stereo not drawn) [I-134, 6-(2-amino-6-fluoro-5-(4-(4-(2-methoxyethyl)morpholin-3-yl)phenyl)pyridin-3-yl)-3,4-dihydroisoquinolin-1(2H)-one] |
| > 1000 | 0.1 to 10 | Nc1nc(F)c(-c2ccc([C@]34CNC[C@H]3C4)cc2)cc1-c1ccc2c(c1)CCNC2=O [I-135, 6-(5-(4-((1R,5S)-3-azabicyclo[3.1.0]hexan-1-yl)phenyl)-2-amino-6-fluoropyridin-3-yl)-3,4-dihydroisoquinolin-1(2H)-one] |

| Structure (SMILES) | IC50 (Lck (h)) [nM] | IC50 [1] [nM] |
| --- | --- | --- |
| Nc1nc(F)c(-c2ccc(C3=CCN(CC(F)F)C3)cc2)cc1-c1ccc2c(c1)CCNC2=O [I-127, 6-(2-amino-5-(4-(1-(2,2-difluoroethyl)-2,5-dihydro-1H-pyrrol-3-yl)phenyl)-6-fluoropyridin-3-yl)-3,4-dihydroisoquinolin-1(2H)-one] | > 1000 | 0.1 to 10 |
| Nc1nc(F)c(-c2ccc(C3COCCN3CC(F)F)cc2)cc1-c1ccc2c(c1)CCNC2=O (stereo not drawn) [I-133, 6-(2-amino-5-(4-(4-(2,2-difluoroethyl)morpholin-3-yl)phenyl)-6-fluoropyridin-3-yl)-3,4-dihydroisoquinolin-1(2H)-one] | > 1000 | 0.1 to 10 |
